System: asthmatic patients
Test: controlled triple-cross-over clinical study, body plethysmographic test of lung function (RAW, FEV1), with pulse and blood pressure
Format: in vivo
Procedure: In a controlled triple-cross-over study, in a body phlethysmographic test of the lung function, the effectiveness of and tolerance to the individual substances compared to the combination were investigated.
The investigation was carried out on three in-patients with chronic-obstructive airway diseases.
The associated medication with dosing aerosols was reduced to a minimum and noted in a special test report. It was ensured that no aerosol was used at least eight hours prior to each lung function investigation.
The medication sequence was randomised, with a wash-out-phase of two days after each medication.
It was ensured that all the patients had received no xanthine 24 hours before the controlled investigation (lung function test and determination of reversibility).
The lung function (RAW and FEV₁) and the pulse of the patients were measured on the first and third day always at the same time of day, as shown in Fig. 3. On the third day of the investigation, after the final measurement of lung function, the reversibility was again determined, 15 minutes after inhalation of 400 microgram Fenoterol.

Structure (SMILES)	rise of FEV₁ mean-value (reversibility) (start of investigation, after inhalation of 400 microgram) [%]	FEV₁ mean-value (start of investigation, after inhalation of 400 microgram, baseline ca. 1,5 l)	reduction of airway resistance (reversibility) (start of investigation, after inhalation of 400 microgram, referred to the initial value) [%]	remaining reversibility (further improvement by inhalation of the dosing aerosol) (third day, after inhalation of 400 microgram Fenoterol, 10 mg Nifedipine alone or 300 mg Theophylline alone twice daily)
CC(Cc1ccc(O)cc1)NCC(O)c1cc(O)cc(O)c1 (stereo not shown) [Fenoterol]	45	ca. 2.2 l	50	
Cn1c(=O)c2[nH]cnc2n(C)c1=O [Theophylline, 1,3-dimethylxanthine]				still left a considerable further improvement
